{
  "source": "patent US4006204A",
  "about": "“Phosphoric acid diesters” (priority 1975, dated 1977)",
  "key": {"prostaglandin synthetase": {"target": "T1, prostaglandin synthetase (Bos taurus, UniProt O62664)", "T1 construct": "enzyme source was bovine; from tissue; host or cells: bovine seminal vesicles", "T1 sequence (O62664 25-600)": "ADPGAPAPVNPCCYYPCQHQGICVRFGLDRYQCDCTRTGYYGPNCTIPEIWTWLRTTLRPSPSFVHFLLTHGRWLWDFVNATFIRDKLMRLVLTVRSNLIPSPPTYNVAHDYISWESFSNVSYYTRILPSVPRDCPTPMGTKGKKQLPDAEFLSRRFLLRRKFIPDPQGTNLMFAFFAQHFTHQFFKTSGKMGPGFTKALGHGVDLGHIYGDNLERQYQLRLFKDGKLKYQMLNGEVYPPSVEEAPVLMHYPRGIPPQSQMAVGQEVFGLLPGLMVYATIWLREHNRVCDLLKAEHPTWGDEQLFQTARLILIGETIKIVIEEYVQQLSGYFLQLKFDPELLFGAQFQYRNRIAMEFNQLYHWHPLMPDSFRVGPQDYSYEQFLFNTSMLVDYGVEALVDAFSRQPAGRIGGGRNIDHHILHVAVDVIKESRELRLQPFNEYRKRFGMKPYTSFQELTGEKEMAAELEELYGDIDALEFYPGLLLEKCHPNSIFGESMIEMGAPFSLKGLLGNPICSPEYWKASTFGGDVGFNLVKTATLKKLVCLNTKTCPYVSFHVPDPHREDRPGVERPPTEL", "assay": "Prostaglandin synthetase inhibition (procedure of Flower et al.)", "format": "biochemical, bovine", "description": "Compounds were tested for prostaglandin synthetase inhibition via the procedure of Flower et al. (Prostaglandins 4: 325, 1973)."}, "prostaglandin receptor": {"tested_on": "prostaglandin receptor", "assay": "Blocking of prostaglandin receptor activity, guinea pig ileum vs Prostaglandin E2", "format": "biochemical", "settings": "for prostaglandin receptor blocking activity (conclusion in words): summary of Table 1", "description": "The following compounds were tested for their biological activity in blocking prostaglandin receptor activity. This test is useful in that many kinds of inflammation are at least partially prostaglandin mediated. Table 1 below tabulates the results.\n^1 PGE2 : Guinea pig ileum IC50 vs Prostaglandin E2"}, "[1]": {"tested_on": "croton oil-induced rat ear edema", "assay": "Tonelli anti-inflammatory animal test, croton oil-induced rat ear edema", "format": "in vivo", "settings": "for % protection at 0.3% / % protection at 1.0% / % protection at 3.0%: croton oil rat ear edema; for potency in reducing edema produced by croton oil (conclusion in words): compared with hydrocortisone, summary of Table 4", "description": "The following compounds were tested in the standard Tonelli anti-inflammatory animal test model for their effectiveness in preventing croton oil-induced rat ear edema."}, "[2]": {"tested_on": "mouse diarrhea induced by intraperitoneal prostaglandin E2", "assay": "Prevention of mouse diarrhea induced by intraperitoneal prostaglandin E2 injection", "format": "in vivo", "settings": "for ED50: Mus musculus, ip, administered intraperitoneally", "description": "Compounds 1 and 2 of Table 2 were tested for their effectiveness in preventing mouse diarrhea induced by intraperitoneal prostaglandin E2 injection. The data are summarized below in Table 5:\n^1 dose administered i.p."}, "[3]": {"settings": "enzyme source bovine seminal vesicles"}},
  "note": "Read-outs that look alike come from different tables or passages of the source.",
  "data": [
    {"smiles": "CC(O)c1ccc(C2CCCCC2)c(Cl)c1", "note": "(stereo not drawn) [Compound 5, reference compound]", "values": [
      {"measurement": "prostaglandin synthetase inhibition at 50 μM", "setting": "prostaglandin synthetase; [3]", "result": "insignificant"}
    ]},
    {"smiles": "CC(COP(=O)(O)Oc1ccccc1)c1ccc(C2CCCCC2)c(Cl)c1", "note": "(stereo not drawn) [Compound 2]", "values": [
      {"measurement": "prostaglandin receptor blocking activity (conclusion in words)", "setting": "prostaglandin receptor", "result": "prostaglandin receptor blockers"},
      {"measurement": "IC50", "setting": "prostaglandin synthetase", "result": 50, "unit": "µM"},
      {"measurement": "% protection at 0.3%", "setting": "[1]", "result": 15.9, "unit": "%"},
      {"measurement": "% protection at 1.0%", "setting": "[1]", "result": 51.3, "unit": "%"},
      {"measurement": "% protection at 3.0%", "setting": "[1]", "result": 65.4, "unit": "%"},
      {"measurement": "potency in reducing edema produced by croton oil (conclusion in words)", "setting": "[1]", "result": "approximately as potent as hydrocortisone"},
      {"measurement": "% prevention of diarrhea", "setting": "[2]; 30 Mg/kg i.p.", "result": 40, "unit": "%"},
      {"measurement": "% prevention of diarrhea", "setting": "[2]; 60 Mg/kg i.p.", "result": 50, "unit": "%"},
      {"measurement": "% prevention of diarrhea", "setting": "[2]; 100 Mg/kg i.p.", "result": 70, "unit": "%"},
      {"measurement": "ED50", "setting": "[2]", "result": "~60", "unit": "mg/kg"}
    ]},
    {"smiles": "CC(CO)c1ccc(C2CCCCC2)c(Cl)c1", "note": "(stereo not drawn) [Compound 4, reference compound]", "values": [
      {"measurement": "prostaglandin receptor blocking activity (conclusion in words)", "setting": "prostaglandin receptor", "result": "weak or have no prostaglandin-blocking activity"},
      {"measurement": "prostaglandin synthetase inhibition at 50 μM", "setting": "prostaglandin synthetase; [3]", "result": "no inhibition"}
    ]},
    {"smiles": "CC(C(=O)O)c1ccc(C2CCCCC2)c(Cl)c1", "note": "(stereo not drawn) [Compound 3]", "values": [
      {"measurement": "Guinea pig ileum inhibition vs Prostaglandin E2", "setting": "prostaglandin receptor; Guinea pig ileum, vs PGE2, at 30 × 10^^-6", "result": "No inhibition"},
      {"measurement": "prostaglandin receptor blocking activity (conclusion in words)", "setting": "prostaglandin receptor", "result": "weak or have no prostaglandin-blocking activity"},
      {"measurement": "IC50", "setting": "prostaglandin synthetase; enzyme source bovine seminal vesicles, read-out: ID50 vs Prostaglandin E2 (prostaglandin synthetase inhibition)", "result": "2 to 4", "unit": "µM"}
    ]},
    {"smiles": "C[C@]12CCC(=O)C=C1CC[C@@H]1[C@@H]2[C@@H](O)C[C@@]2(C)[C@H]1CC[C@]2(O)C(=O)CO", "note": "[hydrocortisone, reference compound]", "values": [
      {"measurement": "% protection at 0.3%", "setting": "[1]", "result": 13.8, "unit": "%"},
      {"measurement": "% protection at 1.0%", "setting": "[1]", "result": 45.9, "unit": "%"},
      {"measurement": "% protection at 3.0%", "setting": "[1]", "result": 68.7, "unit": "%"}
    ]},
    {"smiles": "CC(OP(=O)(O)Oc1ccccc1)c1ccc(C2CCCCC2)c(Cl)c1", "note": "(stereo not drawn) [Compound 1]", "values": [
      {"measurement": "prostaglandin receptor blocking activity (conclusion in words)", "setting": "prostaglandin receptor", "result": "prostaglandin receptor blockers"},
      {"measurement": "IC50", "setting": "prostaglandin synthetase", "result": 18, "unit": "µM"},
      {"measurement": "prostaglandin synthetase blocking (conclusion in words)", "setting": "prostaglandin synthetase; compared with indomethacin, summary of Table 3", "result": "effective blocker of prostaglandin synthetase, comparable in effect to indomethacin"},
      {"measurement": "% protection at 0.3%", "setting": "[1]", "result": 0.0, "unit": "%"},
      {"measurement": "% protection at 1.0%", "setting": "[1]", "result": 23.4, "unit": "%"},
      {"measurement": "% protection at 3.0%", "setting": "[1]", "result": 53.8, "unit": "%"},
      {"measurement": "potency in reducing edema produced by croton oil (conclusion in words)", "setting": "[1]", "result": "approximately as potent as hydrocortisone"},
      {"measurement": "% prevention of diarrhea", "setting": "[2]; 30 Mg/kg i.p.", "result": 0, "unit": "%"},
      {"measurement": "% prevention of diarrhea", "setting": "[2]; 60 Mg/kg i.p.", "result": 60, "unit": "%"},
      {"measurement": "% prevention of diarrhea", "setting": "[2]; 100 Mg/kg i.p.", "result": 70, "unit": "%"},
      {"measurement": "ED50", "setting": "[2]", "result": "~60", "unit": "mg/kg"}
    ]}
  ]
}
